From article PMC9916866 (International Journal of Molecular Sciences, 2023)

Legend:
AT1 receptor [1] = target: T1, AT1 receptor (Homo sapiens, UniProt P30556); format: cell-based; set-up: expressed in transfected cells; host or cells: HEK293T
T1 sequence (P30556 1-359): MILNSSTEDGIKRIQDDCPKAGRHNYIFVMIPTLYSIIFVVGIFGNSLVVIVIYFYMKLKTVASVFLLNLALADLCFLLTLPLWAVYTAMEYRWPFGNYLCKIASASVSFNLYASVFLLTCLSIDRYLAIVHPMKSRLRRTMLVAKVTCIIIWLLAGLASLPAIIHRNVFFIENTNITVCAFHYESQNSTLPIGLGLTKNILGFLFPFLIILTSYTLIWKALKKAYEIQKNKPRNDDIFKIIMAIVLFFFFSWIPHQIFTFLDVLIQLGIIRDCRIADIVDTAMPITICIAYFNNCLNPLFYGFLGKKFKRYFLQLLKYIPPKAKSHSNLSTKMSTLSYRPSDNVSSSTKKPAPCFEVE

AT1 receptor [2] = target: T1, AT1 receptor; test: cell-based; format: cell-based; set-up: expressed in transfected cells; host or cells: HEK293T
AT1 receptor [3] = target: T1, AT1 receptor
AT2 receptor = test system: T2, AT2 receptor; format: binding, rat
T2 construct: expressed in transfected cells

Row | SMILES | activation of GαoA pathway by the substance alone (AT1 receptor [1]) | inhibition of AngII-induced GαoA activation, 1 µM candesartan (AT1 receptor [1]) | activation of Gαi3 by the substance alone (AT1 receptor [2]) | inhibition of AngII-induced Gαi3 activation, 1 µM candesartan (AT1 receptor [2]) | increase in BRET signal (β-arrestin 2 recruitment) by the substance alone (AT1 receptor [3]) | inhibition of AngII-induced β-arrestin 2 BRET signal, 1 µM candesartan (AT1 receptor [3]) | non-specific labelling of cells compared to total labelling with Cy5-AngII alone, AT2 (AT2 receptor)
1 | CCOc1nc2cccc(C(=O)O)c2n1Cc1ccc(-c2ccccc2-c2nnn[nH]2)cc1 [candesartan] | Neither the toxin nor the candesartan alone can induce activation of this pathway | blocked | Neither candesartan, an AT1 receptor antagonist, nor the toxin alone could induce the activation of Gαi3 | fully inhibited | Neither the candesartan nor the toxin alone could induce an increase in the BRET signal | completely inhibits | –
2 | CC[C@H](C)[C@H](NC(=O)[C@H](Cc1ccc(O)cc1)NC(=O)[C@@H](NC(=O)[C@H](CCCNC(=N)N)NC(=O)[C@@H](N)CC(=O)O)C(C)C)C(=O)N[C@@H](Cc1c[nH]cn1)C(=O)N1CCC[C@H]1C(=O)N[C@@H](Cc1ccccc1)C(=O)O [AngII, angiotensin II] | – | – | – | – | – | – | 7%
